Data set [1] can be described thus: Assessment of solubility: HT solubility in pION buffer, UV spectrophotometry. As to conditions: 16-19 h incubation, 1.0% DMSO; for solubility: pION system solution buffer, kinetic from dmso stock.
The target of data set [2] is T1, Recombinant human soluble guanylate cyclase (sGC), alpha 1 / beta 1 subunits, heme-free (Homo sapiens, UniProt Q02108+Q02153).
T1 construct: histidine tag (C); made in house; host or cells: Sf9 insect cells (baculovirus coinfection)
T1 sequence (Q02108 1-690 partner): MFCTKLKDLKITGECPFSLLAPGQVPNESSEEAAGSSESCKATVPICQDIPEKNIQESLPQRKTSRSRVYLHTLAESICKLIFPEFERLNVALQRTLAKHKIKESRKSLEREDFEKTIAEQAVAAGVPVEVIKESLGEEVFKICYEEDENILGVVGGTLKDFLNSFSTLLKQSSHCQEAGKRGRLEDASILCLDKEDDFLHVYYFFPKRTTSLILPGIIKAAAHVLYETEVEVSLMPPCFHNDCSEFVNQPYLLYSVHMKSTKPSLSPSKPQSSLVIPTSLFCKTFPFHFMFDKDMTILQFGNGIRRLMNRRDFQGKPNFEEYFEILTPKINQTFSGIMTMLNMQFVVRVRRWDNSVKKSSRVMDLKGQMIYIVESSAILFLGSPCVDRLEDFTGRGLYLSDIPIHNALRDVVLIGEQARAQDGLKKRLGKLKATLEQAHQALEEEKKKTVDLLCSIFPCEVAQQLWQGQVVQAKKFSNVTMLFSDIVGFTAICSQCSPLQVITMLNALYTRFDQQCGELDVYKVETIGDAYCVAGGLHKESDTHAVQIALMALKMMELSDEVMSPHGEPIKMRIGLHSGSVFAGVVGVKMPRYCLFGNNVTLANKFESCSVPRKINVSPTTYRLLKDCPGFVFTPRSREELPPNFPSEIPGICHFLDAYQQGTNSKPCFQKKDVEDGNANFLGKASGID
T1 sequence (Q02153 1-619): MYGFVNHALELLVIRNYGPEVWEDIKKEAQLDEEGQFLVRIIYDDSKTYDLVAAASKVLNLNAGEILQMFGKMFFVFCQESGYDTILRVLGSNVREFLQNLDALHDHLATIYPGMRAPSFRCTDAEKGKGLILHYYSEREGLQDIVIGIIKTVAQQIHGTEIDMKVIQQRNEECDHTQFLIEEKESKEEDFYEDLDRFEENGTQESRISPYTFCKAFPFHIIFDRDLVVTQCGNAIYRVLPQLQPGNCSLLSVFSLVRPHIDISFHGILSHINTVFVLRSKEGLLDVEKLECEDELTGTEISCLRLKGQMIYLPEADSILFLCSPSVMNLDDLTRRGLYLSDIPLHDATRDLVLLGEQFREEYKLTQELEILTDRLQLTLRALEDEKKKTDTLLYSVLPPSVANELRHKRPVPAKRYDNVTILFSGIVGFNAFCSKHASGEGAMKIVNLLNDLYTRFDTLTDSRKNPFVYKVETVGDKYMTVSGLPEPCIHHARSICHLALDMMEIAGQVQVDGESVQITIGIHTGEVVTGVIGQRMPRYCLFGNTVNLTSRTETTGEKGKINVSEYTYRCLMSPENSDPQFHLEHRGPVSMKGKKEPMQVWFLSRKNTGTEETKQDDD
Nature of the data set: Molecular assay: cGMP formation by heme-free recombinant sGC (CisBio cGMP detection kit). It counts as biochemical. As to conditions: 300 pM heme-free sGC, 37° C., 60 min, cGMP readout; read-out: EC50 nM, Activity of Compounds in Molecular Assay. Put shortly:
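Heme-free His-tagged sGC (Sf9-expressed, Tween 20-treated lysate) at 300 pM incubated with compounds (1% DMSO) for 60 min at 37° C in MOPS pH 6.8 with 50 nM GTP, IBMX, TCEP. cGMP quantified by HTRF against calibration curve; EC50 from combined undiluted/diluted values.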

[3] abbreviates: pH 4.5, pH 4.5, aqueous buffer, Solubility (pH 4.5), pH 4.5 buffer.
The mark [4] stands for this setting: pH 7.4, pH 7.4, aqueous buffer, Solubility (pH 7.4), pH 7.4 buffer.

Consider 16 compounds from US8815857B2 (Boehringer Ingelheim International GmbH, priority 2011, dated 2014).

Molecules are shown by their SMILES. Converted amounts (≈) assume the structure as drawn.

In general, solubility refers to the dissolved amount per volume that the medium holds. Read a high solubility as a readily soluble substance. By EC50 is commonly meant the concentration needed to bring the measured effect to its halfway point.

For the compound `Cc1cc(CN2CCOCC2)ccc1COc1ccc(Cl)cc1-c1csc(N2CCC(C(=O)O)CC2)n1` [Compound 63], the values for the solubility in data set [1] (setting [3]) and in data set [1] (setting [4]) were 30 µg/mL (≈ 55.3 µM) and 32 µg/mL (≈ 59 µM), respectively. Also, in data set [2], the EC50 was 110 nM.
Turning to `Cc1cc(CN2CCS(=O)(=O)CC2)ccc1COc1ccc(C#N)cc1-c1csc(N2C3CCC2CC(C(=O)O)C3)n1` (stereo not drawn) [Compound 147], the solubility is 1 µg/mL (≈ 1.65 µM) in data set [1] (setting [3]) and > 60 µg/mL in data set [1] (setting [4]). Further, in data set [2], the EC50 was found to be 1200 nM.
Turning to `Cc1ccc(OCc2ccc(CN3CCS(=O)(=O)CC3)cc2C#N)c(-c2csc(N3CCC(C(=O)O)CC3)n2)c1` [Compound 119], the solubility in data set [1] (setting [3]) is 1.6 µg/mL (≈ 2.76 µM); in data set [1] (setting [4]) it was > 69 µg/mL. Besides, the EC50 in data set [2] was determined as 39 nM.
Regarding `Cc1ccc(OCc2ccc(C(=O)N3CCCCC3)cc2C)c(-c2csc([C@H]3CC[C@@H](C(=O)O)CC3)n2)c1` [Compound 37], the solubility is 0.15 µg/mL (≈ 0.282 µM) in data set [1] (setting [3]) and > 53 µg/mL in data set [1] (setting [4]). Besides, the EC50 in data set [2] was 2100 nM.
The like results for `Cc1cc(C(=O)N2CCCCC2)ccc1COc1ccc(F)cc1-c1csc(N2CC3CCC(C2)C3C(=O)O)n1` (stereo not drawn) [Compound 98] were, in that order, 0.2 µg/mL (≈ 0.355 µM), > 56 µg/mL and 780 nM.
Regarding `Cc1cc(CN2CCOCC2)ccc1COc1ccccc1-c1csc(N2CC3CCC(C2)C3C(=O)O)n1` (stereo not drawn) [Compound 43], the solubility in data set [1] (setting [3]) and in data set [1] (setting [4]) was > 60 µg/mL each time. In addition, in data set [2], the EC50 came out at 63 nM.
For `N#Cc1cc(CN2CCS(=O)(=O)CC2)ccc1COc1c(Cl)cccc1-c1csc(N2CCC(C(=O)O)CC2)n1` [Compound 140], the solubility in data set [1] (setting [3]) is 1.8 µg/mL (≈ 2.99 µM); in data set [1] (setting [4]) it was > 60 µg/mL. The EC50 in data set [2] turned out to be 79 nM.
Turning to `Cc1cc(CN2CCS(=O)(=O)CC2)ccc1COc1ccccc1-c1csc(N2CCC(C(=O)O)CC2C(F)(F)F)n1` (stereo not drawn) [Compound 152], the figures for the solubility in data set [1] (setting [3]) and in data set [1] (setting [4]) were 0.3 µg/mL (≈ 0.481 µM) and > 62 µg/mL, respectively. For the same compound, the EC50 in data set [2] came out at 170 nM.
For `Cc1cc(C(=O)N2CCCCC2)ccc1COc1ccc(Cl)cc1-c1csc(N2CC3C(C2)C3C(=O)O)n1` (stereo not drawn) [Compound 78], the values for the solubility in data set [1] (setting [3]) and in data set [1] (setting [4]) were 0.2 µg/mL (≈ 0.362 µM) and > 55 µg/mL, respectively. The EC50 in data set [2] worked out at 550 nM.
On to `Cc1ccc(OCc2ccc(C(=O)N3CCCCC3)cc2C)c(-c2csc(N3CCC(C(=O)O)C(C)C3)n2)c1` (stereo not drawn) [Compound 71], for which the solubility is 42 µg/mL (≈ 76.7 µM) in data set [1] (setting [3]) and > 62 µg/mL in data set [1] (setting [4]). In addition, the EC50 in data set [2] was determined as 12000 nM.
Consider `Cc1cc(CN2CCC(C(=O)N(C)C)CC2)ccc1COc1c(C)cccc1-c1csc(N2CCC(C(=O)O)CC2)n1` [Compound 134], for which the solubility in data set [1] (setting [3]) and in data set [1] (setting [4]) was > 68 µg/mL each time. Besides, in data set [2], the EC50 stood at 1800 nM.
As for `Cc1cc(CN2CCS(=O)(=O)CC2)ccc1COc1ccc(F)cc1-c1csc(N2CCC(C(=O)O)CC2C)n1` (stereo not drawn) [Compound 131], the solubility in data set [1] (setting [3]) was 0.15 µg/mL (≈ 0.255 µM); in data set [1] (setting [4]), > 58 µg/mL. For the same compound, the EC50 in data set [2] amounted to 88 nM.
With `Cc1cc(CN2CCOCC2)ccc1COc1ccccc1-c1csc(N2CCC(C(=O)O)CC2C(F)(F)F)n1` (stereo not drawn) [Compound 114], the solubility in data set [1] (setting [3]) was 30 µg/mL (≈ 52.1 µM); in data set [1] (setting [4]) it was > 57 µg/mL. The EC50 in data set [2] was determined as 470 nM.
The like results for `Cc1ccc(OCc2ccc(CN3CCOCC3)cc2C)c(-c2csc(N3CC4C(C3)C4C(=O)O)n2)c1` (stereo not drawn) [Compound 14] were, in that order, > 63 µg/mL, > 63 µg/mL and 4700 nM.
In the case of `Cc1ccc(OCc2ccc(CN3CCS(=O)(=O)CC3)cc2C)c(-c2csc(N3CC4CCC(C3)C4C(=O)O)n2)c1` (stereo not drawn) [Compound 136], the solubility in data set [1] (setting [3]) is 0.45 µg/mL (≈ 0.755 µM); in data set [1] (setting [4]), > 59 µg/mL. Moreover, the EC50 in data set [2] amounted to 6.1 nM.
As for `Cc1cc(C(=O)N2CCCCC2)ccc1COc1ccc(Cl)cc1-c1csc(N2CCC(C(=O)O)C(C(F)(F)F)C2)n1` (stereo not drawn) [Compound 149], the “Solubility (pH 4.5)” value in data set [1] (pH 4.5 buffer) stood at 0.1 μg/mL. In addition, the solubility in data set [1] (setting [4]) was > 62 µg/mL. For the same compound, the EC50 in data set [2] came to 380 nM.
